# Test results published in patent US10766917B2, “Nucleotides for the treatment of cancer” (IDENIX PHARMACEUTICALS LLC, priority 2015, dated 2020).
# Legend:
# Assay in all cases: In vitro inhibition, CellTiter-Glo (CTG) assay
# Type in all cases: cell-based
# MiaPACA-2 = tested on: MiaPACA-2
# Description: (§1) Cells were grown in RPMI-1640 supplemented with L-Glutamine and 10% FBS of the following cell lines:
# (§2) CCRF-CEM; HL-60; KG-1; CFPAC-1; MiaPACA-2; BxPC-3; HepG2; MDA-MB-231; HCT-116; A498; and NCI-H69
# (§3) 18, 96 well plates of each cell line were seeded with the optimized number of cells per well in a total volume of 50 μper well. The plates were left overnight. Plate wells were seeded with 100 pt media for media control. The following day, cells were exposed to test compounds as described below. At the same time as drug exposure, a CTG assay was conducted on the 18th plate for the 0 hr count.
# (§4) The compounds were added to cells and medium already on the plate to give desired final concentrations. 50 μL media were added to cell control wells, and 50 μL of mix added to vehicle control wells. 10 μM Doxorubicin was added to appropriate wells as control. Cells exposed to test compound were incubated at 37° C. for 72 hr followed by a CTG assay.
# (§5) At the end of the 72 hr exposure period, plates were removed for a CellTiter-Glo (CTG) assay from a 37° C., 5% CO2 incubator and placed on the bench at room temperature for 30 mins. 100 μL of CellTiter-Glo reagent was added and mixed for 2 mins, followed by a further 10 min incubation at room temperature. Luminescence was recorded using Synergy 4.0.
# HepG2 = tested on: HepG2
# Description: as §1, §2, §3, §4, §5
# A498 = tested on: A498
# Description: as §1, §2, §3, §4, §5
# CFPAC-1 = tested on: CFPAC-1
# Description: as §1, §2, §3, §4, §5
# HCT-116 = tested on: HCT-116
# Description: as §1, §2, §3, §4, §5
# MDA-MB-231 = tested on: MDA-MB-231
# Description: as §1, §2, §3, §4, §5
# NCI-H69 = tested on: NCI-H69
# Description: as §1, §2, §3, §4, §5
# BxPC-3 = tested on: BxPC-3
# Description: as §1, §2, §3, §4, §5
# [1] = Homo sapiens, MIA PaCa-2, 72 h, 72 hr exposure
# [2] = Homo sapiens, HepG2, 72 h, 72 hr exposure
# [3] = Homo sapiens, A498, 72 h, 72 hr exposure
# [4] = Homo sapiens, CFPAC-1, 72 h, 72 hr exposure
# [5] = Homo sapiens, HCT-116, 72 h, 72 hr exposure
# [6] = Homo sapiens, MDA-MB-231, 72 hr exposure
# [7] = Homo sapiens, NCI-H69, 72 h, 72 hr exposure
# [8] = Homo sapiens, BXPC-3, 72 h, 72 hr exposure
# [9] = Homo sapiens, NCI-H69, 72 hr exposure
IC50 (MiaPACA-2; [1]) [µM],IC50 (HepG2; [2]) [µM],IC50 (HCT-116; [5]) [µM],IC50 (MDA-MB-231; [6]) [µM],IC50 (NCI-H69; [7]) [µM],IC50 (BxPC-3; [8]) [µM],IC50 (MiaPACA-2; 72 hr exposure) [µM],IC50 (HepG2; 72 hr exposure) [µM],IC50 (HCT-116; 72 hr exposure) [µM],IC50 (MDA-MB-231; 72 hr exposure) [µM],IC50 (NCI-H69; 72 hr exposure) [µM],IC50 (BxPC-3; 72 hr exposure) [µM],SMILES,IC50 (A498; [3]) [µM],IC50 (CFPAC-1; [4]) [µM],IC50 (A498; 72 hr exposure) [µM],IC50 (CFPAC-1; 72 hr exposure) [µM],other results
10 to 100,1 to 10,10 to 100,10 to 100,10 to 100,10 to 100,,,,,,,"COC(=O)[C@H](CC(C)C)NP(=O)(N[C@@H](CC(C)C)C(=O)OC)OC[C@H]1O[C@@H](n2ccc(N)nc2=O)C(F)(F)[C@@H]1O [Compound 109, Methyl (2S)-2-[[[(2R,3R,5R)-5-(4-amino-2-oxo-pyrimidin-1-yl)-4,4-difluoro-3-hydroxy-tetrahydrofuran-2-yl]methoxy-[[(1S)-1-methoxycarbonyl-3-methyl-butyl]amino]phosphoryl]amino]-4-methyl-pentanoate]",10 to 100,1 to 10,,,
,,,,,,< 1,< 1,1 to 10,1 to 10,1 to 10,< 1,"CC(C)(C)C(=O)SCCOP1(=O)OC[C@H]2O[C@@H](n3ccc(N)nc3=O)C(F)(F)[C@@H]2O1 (single isomer, unassigned) [104 (diastereomer 2)]",,,< 1,< 1,
,,,,,,< 1,< 1,< 1,10 to 100,10 to 100,1 to 10,"CC(C)(C)SSCCOP(=O)(NCc1ccccc1)OC[C@H]1O[C@@H](n2ccc(N)nc2=O)C(F)(F)[C@@H]1O (single isomer, unassigned) [111 (diastereomer 2)]",,,10 to 100,< 1,
< 1,< 1,,10 to 100,,< 1,,,< 1,,1 to 10,,"CC(C)C(=O)OC[C@@H](C)NP1(=O)OC[C@H]2O[C@@H](n3ccc(N)nc3=O)C(F)(F)[C@@H]2O1 (single isomer, unassigned) [105 (diastereomer 1)]",,< 1,10 to 100,,
< 1,< 1,< 1,10 to 100,1 to 10,1 to 10,,,,,,,"CCOC(=O)[C@H](CC(C)C)NP(=O)(O)OC[C@H]1O[C@@H](n2ccc(N)nc2=O)C(F)(F)[C@@H]1O [Compound 115, [(2R,3R,5R)-5-(4-amino-2-oxo-pyrimidin-1-yl)-4,4-difluoro-3-hydroxy-tetrahydrofuran-2-yl]methoxy-N-[(1S)-1-ethoxycarbonyl-3-methyl-butyl]phosphonamidic acid]",10 to 100,< 1,,,
,,,,,,1 to 10,< 1,10 to 100,10 to 100,10 to 100,1 to 10,"CC(C)C(=O)OC[C@@H](C)NP1(=O)OC[C@H]2O[C@@H](n3ccc(N)nc3=O)C(F)(F)[C@@H]2O1 (single isomer, unassigned) [105 (diastereomer 2)]",,,1 to 10,1 to 10,
1 to 10,< 1,,10 to 100,10 to 100,,,,10 to 100,,,10 to 100,"COC(=O)[C@H](CCCCNP1(=O)OC[C@H]2O[C@@H](n3ccc(N)nc3=O)C(F)(F)[C@@H]2O1)NC(=O)OC(C)(C)C (single isomer, unassigned) [106 (diastereomer 1)]",10 to 100,1 to 10,,,
< 1,< 1,< 1,1 to 10,< 1,< 1,,,,,,,CC(C)(CO)C(=O)SCCOP(=O)(O)OC[C@H]1O[C@@H](n2ccc(N)nc2=O)C(F)(F)[C@@H]1O [Compound 118],< 1,< 1,,,
< 1,< 1,1 to 10,1 to 10,1 to 10,< 1,,,,,,,"CC(C)(C)C(=O)SCCOP1(=O)OC[C@H]2O[C@@H](n3ccc(N)nc3=O)C(F)(F)[C@@H]2O1 (single isomer, unassigned) [104 (diastereomer 1)]",,< 1,10 to 100,,
,,,,,,10 to 100,10 to 100,10 to 100,10 to 100,10 to 100,10 to 100,"CCCC(CCC)C(=O)Nc1ccn([C@@H]2O[C@@H]3COP(=O)(N[C@H](C)C(=O)OC(C)C)O[C@H]3C2(F)F)c(=O)n1 (single isomer, unassigned) [116 (diastereomer 2)]",,,10 to 100,10 to 100,
,,,10 to 100,10 to 100,,10 to 100,10 to 100,10 to 100,,,10 to 100,"CC(C)(C)SSCCOP(=O)(NCc1ccccc1)OC[C@H]1O[C@@H](n2ccc(N)nc2=O)C(F)(F)[C@@H]1O (single isomer, unassigned) [111 (diastereomer 1)]",10 to 100,,,10 to 100,
,,,,,,1 to 10,< 1,1 to 10,10 to 100,10 to 100,1 to 10,"COC(=O)[C@H](CCCCNP1(=O)OC[C@H]2O[C@@H](n3ccc(N)nc3=O)C(F)(F)[C@@H]2O1)NC(=O)OC(C)(C)C (single isomer, unassigned) [106 (diastereomer 2)]",,,10 to 100,1 to 10,
< 1,< 1,1 to 10,10 to 100,1 to 10,< 1,,,,,,,"Nc1ccn([C@@H]2O[C@@H]3COP(=O)(O)O[C@H]3C2(F)F)c(=O)n1 [Compound 107, 1-[(4aR,6R,7aR)-7,7-difluoro-2-hydroxy-2-oxo-4,4a,6,7a-tetrahydrofuro[3,2-d][1,3,2]dioxaphosphinin-6-yl]-4-amino-pyrimidin-2-one]",10 to 100,< 1,,,
10 to 100,10 to 100,10 to 100,10 to 100,10 to 100,10 to 100,,,,,,,"CCCC(CCC)C(=O)Nc1ccn([C@@H]2O[C@@H]3COP(=O)(N[C@H](C)C(=O)OC(C)C)O[C@H]3C2(F)F)c(=O)n1 (single isomer, unassigned) [116 (diastereomer 1)]",10 to 100,10 to 100,,,
10 to 100,10 to 100,10 to 100,10 to 100,10 to 100,10 to 100,,,,,,,CC(C)OP(=O)(OC[C@H]1O[C@@H](n2ccc(N)nc2=O)C(F)(F)[C@@H]1O)OC(C)C [Compound 119],10 to 100,10 to 100,,,

SMILES,IC50 (MiaPACA-2; [1]) [µM],IC50 (HepG2; [2]) [µM],IC50 (HCT-116; [5]) [µM],IC50 (MDA-MB-231; [6]) [µM],IC50 (NCI-H69; [7]) [µM],IC50 (BxPC-3; [8]) [µM],IC50 (MiaPACA-2; 72 hr exposure) [µM],IC50 (HepG2; 72 hr exposure) [µM],IC50 (HCT-116; 72 hr exposure) [µM],IC50 (MDA-MB-231; 72 hr exposure) [µM],IC50 (NCI-H69; 72 hr exposure) [µM],IC50 (BxPC-3; 72 hr exposure) [µM],IC50 (A498; [3]) [µM],IC50 (CFPAC-1; [4]) [µM],IC50 (A498; 72 hr exposure) [µM],IC50 (CFPAC-1; 72 hr exposure) [µM],other results
"CC(C)OC(=O)[C@@H](C)NP1(=O)OC[C@H]2O[C@@H](n3ccc(N)nc3=O)C(F)(F)[C@@H]2O1 (single isomer, unassigned) [101 (diastereomer 1)]",,,,10 to 100,,,< 1,< 1,1 to 10,,,10 to 100,,,1 to 10,< 1,IC50 (NCI-H69; [9]): 10 to 100 µM
"Nc1ccn([C@@H]2O[C@H](COP(=O)(OCc3ccc([N+](=O)[O-])o3)OCc3ccc([N+](=O)[O-])o3)[C@@H](O)C2(F)F)c(=O)n1 [Compound 114, [(2R,3R,5R)-5-(4-amino-2-oxo-pyrimidin-1-yl)-4,4-difluoro-3-hydroxy-tetrahydrofuran-2-yl]methyl bis[(5-nitro-2-furyl)methyl] phosphate]",,,,10 to 100,,,,,,,,,,,,,"IC50 (MiaPACA-2; Homo sapiens, MIA PaCa-2, 72 hr exposure): < 1 µM; IC50 (HepG2; Homo sapiens, HepG2, 72 hr exposure): < 1 µM; IC50 (A498; Homo sapiens, A498, 72 hr exposure): < 1 µM; IC50 (CFPAC-1; Homo sapiens, CFPAC-1, 72 hr exposure): < 1 µM; IC50 (HCT-116; Homo sapiens, HCT-116, 72 hr exposure): 1 to 10 µM; IC50 (NCI-H69; [9]): 10 to 100 µM; IC50 (BxPC-3; Homo sapiens, BXPC-3, 72 hr exposure): < 1 µM"
"CC(C)OC(=O)[C@@H](C)NP1(=O)OC[C@H]2O[C@@H](n3ccc(N)nc3=O)C(F)(F)[C@@H]2O1 (single isomer, unassigned) [101 (diastereomer 2)]",1 to 10,1 to 10,,,,10 to 100,,,10 to 100,10 to 100,10 to 100,,,1 to 10,10 to 100,,
